What all share (assay): ADP-[…]Glc synthesis from […]Glc1P, modified Hill fit
The test system of experiment [1] is T1, OtaS.
T1 construct: recombinant small subunit homotetramer from E. coli AC70R1-504, purified; plasmid pMAB5 or pMAB6
In kind it is biochemical, Ostreococcus tauri. As to conditions: allosteric activator; 1 mM ATP, 1 mM Glc1P, 7 mM MgCl2, pH 8.0, 37 °C; read-out: A0.5.

For experiment [2], the system named is T2, OtaS/OtaL.
T2 construct: recombinant S2L2 heterotetramer co-expressed in E. coli AC70R1-504, purified
In kind it is biochemical, Ostreococcus tauri. The settings on record: allosteric activator; 1 mM ATP, 1 mM Glc1P, 7 mM MgCl2, pH 8.0, 37 °C; read-out: A0.5.

Experiment [3] has as its system T2, OtaS/OtaL. In kind it is biochemical, Ostreococcus tauri. As to conditions: allosteric activator; 1 mM ATP, 1 mM Glc1P, 7 mM MgCl2, pH 8.0, 37 °C; non-catalytic OtaL with wild-type OtaS; read-out: A0.5.
Experiment [4] deals with T3, ADP-Glc PPase from Anabaena (Nostoc sp. PCC 7120 = FACHB-418, UniProt P30521).
T3 construct: gene glgC; recombinant homotetramer from E. coli AC70R1-504, purified
T3 sequence (P30521 1-429): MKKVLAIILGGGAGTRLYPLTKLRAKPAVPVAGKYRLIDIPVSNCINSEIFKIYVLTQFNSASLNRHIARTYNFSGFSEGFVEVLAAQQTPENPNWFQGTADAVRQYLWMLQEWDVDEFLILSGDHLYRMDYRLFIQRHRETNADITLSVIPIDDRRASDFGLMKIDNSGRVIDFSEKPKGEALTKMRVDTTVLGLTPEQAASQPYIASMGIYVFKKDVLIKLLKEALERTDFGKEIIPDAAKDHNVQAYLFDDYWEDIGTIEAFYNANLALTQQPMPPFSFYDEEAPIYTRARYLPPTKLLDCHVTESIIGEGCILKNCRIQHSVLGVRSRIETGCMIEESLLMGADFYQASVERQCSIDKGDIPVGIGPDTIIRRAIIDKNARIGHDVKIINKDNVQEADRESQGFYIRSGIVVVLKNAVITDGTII
The class given is biochemical. The settings on record: read-out: A0.5.

In experiment [5] the test system is T2, OtaS/OtaL. In kind it is biochemical, Ostreococcus tauri. As to conditions: allosteric activator; 1 mM ATP, 1 mM Glc1P, 7 mM MgCl2, pH 8.0, 37 °C; non-catalytic OtaS with wild-type OtaL; read-out: A0.5.
The mark [6] stands for this setting: allosteric activator, 1 mM ATP, 1 mM Glc1P, 7 mM MgCl2, pH 8.0, 37 °C.

Molecules are shown by their SMILES. Like-named read-outs stand apart in the source and are kept apart here.

For `O=C(O)[C@H](O)COP(=O)(O)O` [3-PGA], the EC50 in experiment [1] is 1200 µM; in experiment [2], 540 µM; in experiment [3], 67 µM; in experiment [4], 75 µM; in experiment [5] it was 3 µM.
For the compound `O=P(O)(O)OC[C@H]1OC(O)[C@H](O)[C@@H](O)[C@@H]1O` (stereo partly shown) [Glc6P], the EC50 in experiment [1] was 10000 µM; in experiment [2], 75000 µM; in experiment [4] (setting [6]) it was 400 µM.
As to `O=P(O)(O)OC[C@H]1OC(O)(COP(=O)(O)O)[C@@H](O)[C@@H]1O` (stereo partly shown) [FBP], the EC50 was determined as 1100 µM in experiment [1]; 1100 µM in experiment [2]; 1500 µM in experiment [3]; 300 µM in experiment [4] (setting [6]); 8200 µM in experiment [5].
With `O=P(O)(O)OC[C@H]1OC(O)(CO)[C@@H](O)[C@@H]1O` (stereo partly shown) [Fru6P], the figures for the EC50 in experiment [1], in experiment [2] and in experiment [4] (setting [6]) were 1900 µM, 15000 µM and 1600 µM, respectively.

For the origin of these results see publication PMC3585822, “The ancestral activation promiscuity of ADP-glucose pyrophosphorylases from oxygenic photosynthetic organisms” (BMC Evolutionary Biology, 2013).
